Test results from the NIST ThermoML archive (doi:10.1016/j.fluid.2013.10.022).
± gives the expanded uncertainty stated by the source.

How the values were obtained:
[1] = 298.2 K; 101.33 kPa; Liquid; Vibrating tube method
[2] = refractive index (Na D-line) (dimensionless); conditions: 298.2 K; 101.33 kPa; Liquid; Standard Abbe refractometry

| mass density [1] [kg/m3] | refractive index [2] | SMILES |
| --- | --- | --- |
| 821.69 ± 0.24 | 1.4276 ± 0.0008 | CCCCCCCCO [octan-1-ol] |
| – | 1.3324 ± 0.0008 | O [water] |
| 830.22 ± 0.24 | 1.4293 ± 0.0008 | CCCCC(CC)CO (configuration not stated) [2-ethyl-1-hexanol] |
| 952.68 ± 0.23 | 1.3977 ± 0.0008 | CCCC(=O)O [butanoic acid] |
